Results from ChEMBL document CHEMBL5120914, “An O-Benzyl Phosphonamidate Prodrug of Tenofovir for the Treatment of Hepatitis B Virus Infection” (J Med Chem, 2022).

How the values were obtained:
[1] = Cytotoxicity against human HepG2 cells assessed as reduction in cell growth incubated for 3 days by MTT assay; format: toxicity, cell-based; conditions: time 3 day
[2] = system: Hepatitis B virus; test: Antiviral activity against Hepatitis B virus infected in human HepG2.2.15 cells assessed as inhibition of viral DNA replication measured for 9 days by FQ-PCR analysis; format: functional, organism-based; conditions: HepG2 2.2.15, 216 h
[3] = system: Hepatitis B virus; test: Antiviral activity against Hepatitis B virus infected in human HepG2.2.15 cells assessed as inhibition of viral DNA replication at 1 uM measured after 6 days by FQ-PCR analysis relative to control; format: functional, HepG2 2.2.15; set-up: scale not given: the % may be the effect or the level left; conditions: time 6 day
[4] = system: Hepatitis B virus; test: Antiviral activity against Hepatitis B virus infected in human HepG2.2.15 cells assessed as inhibition of viral DNA replication at 20 uM measured after 6 days by FQ-PCR analysis relative to control; format: functional, HepG2 2.2.15; set-up: scale not given: the % may be the effect or the level left; conditions: time 6 day

EC50 [2] [µM]	Compound	CC50 at 72 h [1] [µM]	Activity [3] [%]	Activity [4] [%]	Activity ([3]; 144 h, 1 µM) [%]
0.618	COC(=O)[C@H](C)NP(=O)(CO[C@H](C)Cn1cnc2c(N)ncnc21)OCc1ccccc1C (stereo not given in full)	> 500	65.23		
0.047	CC(C)OC(=O)[C@H](C)NP(=O)(CO[C@H](C)Cn1cnc2c(N)ncnc21)OCc1cccc(Cl)c1 (stereo not given in full)	> 500	73.95		
0.078	CC(C)OC(=O)[C@H](C)NP(=O)(CO[C@H](C)Cn1cnc2c(N)ncnc21)OCc1ccccc1[N+](=O)[O-] (stereo not given in full)	> 500	79.74		
	COc1cccc(COP(=O)(CO[C@H](C)Cn2cnc3c(N)ncnc32)N[C@@H](C)C(=O)OC(C)C)c1 (stereo not given in full)	> 500	46.33		
	CCCCOC(=O)[C@H](C)NP(=O)(CO[C@H](C)Cn1cnc2c(N)ncnc21)OCc1ccccc1C (stereo not given in full)	> 500	22.62		
	CC(C)OC(=O)[C@H](C)NP(=O)(CO[C@H](C)Cn1cnc2c(N)ncnc21)OCc1ccccc1 (stereo not given in full)	> 500	47.14		
	Cc1ccccc1COP(=O)(CO[C@H](C)Cn1cnc2c(N)ncnc21)N[C@@H](C)C(=O)OC1CCCCC1 (stereo not given in full)	> 500	21.46		
0.029	CC(C)OC(=O)[C@H](C)NP(=O)(CO[C@H](C)Cn1cnc2c(N)ncnc21)OCc1ccccc1F (stereo not given in full)	> 500	66.36		
	Nc1ccn([C@@H]2CS[C@H](CO)O2)c(=O)n1 [LAMIVUDINE]	> 500		77.32	
	Cc1ccccc1COP(=O)(CO[C@H](C)Cn1cnc2c(N)ncnc21)N[C@@H](C)C(=O)OCC(C)C (stereo not given in full)	> 500	25.78		
	CC(C)OC(=O)[C@H](C)NP(=O)(CO[C@H](C)Cn1cnc2c(N)ncnc21)OCc1ccccc1C(F)(F)F (stereo not given in full)	> 500	46.76		
	CC(C)OC(=O)[C@H](C)NP(=O)(CO[C@H](C)Cn1cnc2c(N)ncnc21)OCc1cccc(Br)c1 (stereo not given in full)	> 500	31.94		
	Cc1ccccc1COP(=O)(CO[C@H](C)Cn1cnc2c(N)ncnc21)N[C@@H](C)C(=O)OC(C)C (stereo in doubt; 1a-2)				85.4
	CCOC(=O)[C@H](C)NP(=O)(CO[C@H](C)Cn1cnc2c(N)ncnc21)OCc1ccccc1C (stereo not given in full)	> 500	41.27		
	COc1ccc(COP(=O)(CO[C@H](C)Cn2cnc3c(N)ncnc32)N[C@@H](C)C(=O)OC(C)C)cc1 (stereo not given in full)	> 500	41.64		
	CCCOC(=O)[C@H](C)NP(=O)(CO[C@H](C)Cn1cnc2c(N)ncnc21)OCc1ccccc1C (stereo not given in full)	> 500	14.35		
	CC(C)OC(=O)[C@H](C)NP(=O)(CO[C@H](C)Cn1cnc2c(N)ncnc21)OCc1ccc(F)cc1 (stereo not given in full)	> 500	43.65		
0.027	CC(C)OC(=O)[C@H](C)NP(=O)(CO[C@H](C)Cn1cnc2c(N)ncnc21)OCc1cccc(F)c1 (stereo not given in full)	> 500	68.11		
